These results are taken from patent US12479847B2 (DANA-FARBER CANCER INSTITUTE, INC., priority 2019, dated 2025).

What all share (test): KINOMEscan (ScanMAX) kinase profiling
Holding throughout (type): binding

Test [1] deals with T1, panel of 468 kinases (Homo sapiens, UniProt Q9Y463).
T1 construct: purchased KINOMEscan (ScanMAX) service
The following applies: DYRK1B; 1 μM; read-out: % control.

Test [2] addresses T2, panel of 468 kinases (Homo sapiens, UniProt P29322).
T2 construct: purchased KINOMEscan (ScanMAX) service
T2 sequence (P29322 28-1005): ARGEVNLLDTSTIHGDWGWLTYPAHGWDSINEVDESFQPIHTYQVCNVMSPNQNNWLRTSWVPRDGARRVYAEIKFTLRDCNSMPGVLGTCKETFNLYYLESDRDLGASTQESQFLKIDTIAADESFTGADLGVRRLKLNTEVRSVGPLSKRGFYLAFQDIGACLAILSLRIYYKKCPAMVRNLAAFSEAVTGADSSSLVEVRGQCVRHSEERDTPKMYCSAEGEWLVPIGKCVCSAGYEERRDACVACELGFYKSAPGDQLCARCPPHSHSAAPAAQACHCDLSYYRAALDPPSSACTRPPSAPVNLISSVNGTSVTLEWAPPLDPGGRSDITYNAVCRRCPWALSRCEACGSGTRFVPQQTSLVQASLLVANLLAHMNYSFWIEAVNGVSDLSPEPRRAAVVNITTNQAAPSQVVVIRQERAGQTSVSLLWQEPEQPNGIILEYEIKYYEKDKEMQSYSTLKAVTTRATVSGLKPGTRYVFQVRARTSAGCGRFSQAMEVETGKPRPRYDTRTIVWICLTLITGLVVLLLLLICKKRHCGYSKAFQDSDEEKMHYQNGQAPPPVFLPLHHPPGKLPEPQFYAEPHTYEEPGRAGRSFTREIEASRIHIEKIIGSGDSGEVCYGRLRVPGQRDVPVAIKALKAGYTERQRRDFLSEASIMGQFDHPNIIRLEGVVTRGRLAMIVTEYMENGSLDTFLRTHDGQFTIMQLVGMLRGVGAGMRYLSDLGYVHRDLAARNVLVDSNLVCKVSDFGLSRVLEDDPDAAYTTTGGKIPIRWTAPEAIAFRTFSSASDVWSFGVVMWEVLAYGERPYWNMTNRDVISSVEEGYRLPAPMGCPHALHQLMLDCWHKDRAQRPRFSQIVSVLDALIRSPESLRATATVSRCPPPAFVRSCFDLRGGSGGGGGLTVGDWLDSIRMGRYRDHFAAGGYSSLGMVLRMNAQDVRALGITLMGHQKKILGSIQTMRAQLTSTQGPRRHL
The following applies: EPHA8; 1 μM; read-out: % control.

In test [3] the target is T3, panel of 468 kinases (Homo sapiens, UniProt Q9Y6E0).
T3 construct: purchased KINOMEscan (ScanMAX) service
T3 sequence (Q9Y6E0 whole entry): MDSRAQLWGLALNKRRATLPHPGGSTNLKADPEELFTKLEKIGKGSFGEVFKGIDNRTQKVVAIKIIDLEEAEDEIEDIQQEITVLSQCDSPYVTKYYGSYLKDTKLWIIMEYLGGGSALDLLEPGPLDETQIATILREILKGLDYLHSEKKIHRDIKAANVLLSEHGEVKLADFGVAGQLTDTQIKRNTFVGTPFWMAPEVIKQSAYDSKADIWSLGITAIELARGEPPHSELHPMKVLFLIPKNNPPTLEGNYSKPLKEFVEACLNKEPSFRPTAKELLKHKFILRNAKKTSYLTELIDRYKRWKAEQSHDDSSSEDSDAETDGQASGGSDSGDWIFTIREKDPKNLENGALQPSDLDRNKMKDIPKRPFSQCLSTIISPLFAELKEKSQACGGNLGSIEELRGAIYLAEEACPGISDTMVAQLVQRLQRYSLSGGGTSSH
The following applies: MST3; 1 μM; read-out: % control.

For test [4], the target named is T4, panel of 468 kinases (Homo sapiens, UniProt Q15208).
T4 construct: purchased KINOMEscan (ScanMAX) service
T4 sequence (Q15208 whole entry): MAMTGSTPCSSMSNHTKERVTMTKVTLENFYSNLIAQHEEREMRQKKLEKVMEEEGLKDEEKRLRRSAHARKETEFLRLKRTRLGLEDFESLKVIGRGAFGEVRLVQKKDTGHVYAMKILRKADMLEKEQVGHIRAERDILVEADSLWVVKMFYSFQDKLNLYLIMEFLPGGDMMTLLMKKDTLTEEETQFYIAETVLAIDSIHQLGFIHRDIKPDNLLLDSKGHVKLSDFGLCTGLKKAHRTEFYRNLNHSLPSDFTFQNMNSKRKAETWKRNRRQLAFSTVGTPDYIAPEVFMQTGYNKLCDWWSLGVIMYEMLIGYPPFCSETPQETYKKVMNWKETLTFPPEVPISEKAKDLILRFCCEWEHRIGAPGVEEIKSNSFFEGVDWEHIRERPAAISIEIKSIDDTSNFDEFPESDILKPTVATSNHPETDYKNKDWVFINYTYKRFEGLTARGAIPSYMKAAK
The following applies: NDR1; 1 μM; read-out: % control.

Test [5] addresses T5, panel of 468 kinases (Homo sapiens, UniProt Q02779).
T5 construct: purchased KINOMEscan (ScanMAX) service
The following applies: MLK2; 1 μM; read-out: % control.

Test [6] deals with T6, panel of 468 kinases (Homo sapiens, UniProt Q15569).
T6 construct: purchased KINOMEscan (ScanMAX) service
The following applies: TESK1; 1 μM; read-out: % control.

In test [7] the target is T7, panel of 468 kinases (Homo sapiens, UniProt P08922).
T7 construct: purchased KINOMEscan (ScanMAX) service
T7 sequence (P08922 28-2347): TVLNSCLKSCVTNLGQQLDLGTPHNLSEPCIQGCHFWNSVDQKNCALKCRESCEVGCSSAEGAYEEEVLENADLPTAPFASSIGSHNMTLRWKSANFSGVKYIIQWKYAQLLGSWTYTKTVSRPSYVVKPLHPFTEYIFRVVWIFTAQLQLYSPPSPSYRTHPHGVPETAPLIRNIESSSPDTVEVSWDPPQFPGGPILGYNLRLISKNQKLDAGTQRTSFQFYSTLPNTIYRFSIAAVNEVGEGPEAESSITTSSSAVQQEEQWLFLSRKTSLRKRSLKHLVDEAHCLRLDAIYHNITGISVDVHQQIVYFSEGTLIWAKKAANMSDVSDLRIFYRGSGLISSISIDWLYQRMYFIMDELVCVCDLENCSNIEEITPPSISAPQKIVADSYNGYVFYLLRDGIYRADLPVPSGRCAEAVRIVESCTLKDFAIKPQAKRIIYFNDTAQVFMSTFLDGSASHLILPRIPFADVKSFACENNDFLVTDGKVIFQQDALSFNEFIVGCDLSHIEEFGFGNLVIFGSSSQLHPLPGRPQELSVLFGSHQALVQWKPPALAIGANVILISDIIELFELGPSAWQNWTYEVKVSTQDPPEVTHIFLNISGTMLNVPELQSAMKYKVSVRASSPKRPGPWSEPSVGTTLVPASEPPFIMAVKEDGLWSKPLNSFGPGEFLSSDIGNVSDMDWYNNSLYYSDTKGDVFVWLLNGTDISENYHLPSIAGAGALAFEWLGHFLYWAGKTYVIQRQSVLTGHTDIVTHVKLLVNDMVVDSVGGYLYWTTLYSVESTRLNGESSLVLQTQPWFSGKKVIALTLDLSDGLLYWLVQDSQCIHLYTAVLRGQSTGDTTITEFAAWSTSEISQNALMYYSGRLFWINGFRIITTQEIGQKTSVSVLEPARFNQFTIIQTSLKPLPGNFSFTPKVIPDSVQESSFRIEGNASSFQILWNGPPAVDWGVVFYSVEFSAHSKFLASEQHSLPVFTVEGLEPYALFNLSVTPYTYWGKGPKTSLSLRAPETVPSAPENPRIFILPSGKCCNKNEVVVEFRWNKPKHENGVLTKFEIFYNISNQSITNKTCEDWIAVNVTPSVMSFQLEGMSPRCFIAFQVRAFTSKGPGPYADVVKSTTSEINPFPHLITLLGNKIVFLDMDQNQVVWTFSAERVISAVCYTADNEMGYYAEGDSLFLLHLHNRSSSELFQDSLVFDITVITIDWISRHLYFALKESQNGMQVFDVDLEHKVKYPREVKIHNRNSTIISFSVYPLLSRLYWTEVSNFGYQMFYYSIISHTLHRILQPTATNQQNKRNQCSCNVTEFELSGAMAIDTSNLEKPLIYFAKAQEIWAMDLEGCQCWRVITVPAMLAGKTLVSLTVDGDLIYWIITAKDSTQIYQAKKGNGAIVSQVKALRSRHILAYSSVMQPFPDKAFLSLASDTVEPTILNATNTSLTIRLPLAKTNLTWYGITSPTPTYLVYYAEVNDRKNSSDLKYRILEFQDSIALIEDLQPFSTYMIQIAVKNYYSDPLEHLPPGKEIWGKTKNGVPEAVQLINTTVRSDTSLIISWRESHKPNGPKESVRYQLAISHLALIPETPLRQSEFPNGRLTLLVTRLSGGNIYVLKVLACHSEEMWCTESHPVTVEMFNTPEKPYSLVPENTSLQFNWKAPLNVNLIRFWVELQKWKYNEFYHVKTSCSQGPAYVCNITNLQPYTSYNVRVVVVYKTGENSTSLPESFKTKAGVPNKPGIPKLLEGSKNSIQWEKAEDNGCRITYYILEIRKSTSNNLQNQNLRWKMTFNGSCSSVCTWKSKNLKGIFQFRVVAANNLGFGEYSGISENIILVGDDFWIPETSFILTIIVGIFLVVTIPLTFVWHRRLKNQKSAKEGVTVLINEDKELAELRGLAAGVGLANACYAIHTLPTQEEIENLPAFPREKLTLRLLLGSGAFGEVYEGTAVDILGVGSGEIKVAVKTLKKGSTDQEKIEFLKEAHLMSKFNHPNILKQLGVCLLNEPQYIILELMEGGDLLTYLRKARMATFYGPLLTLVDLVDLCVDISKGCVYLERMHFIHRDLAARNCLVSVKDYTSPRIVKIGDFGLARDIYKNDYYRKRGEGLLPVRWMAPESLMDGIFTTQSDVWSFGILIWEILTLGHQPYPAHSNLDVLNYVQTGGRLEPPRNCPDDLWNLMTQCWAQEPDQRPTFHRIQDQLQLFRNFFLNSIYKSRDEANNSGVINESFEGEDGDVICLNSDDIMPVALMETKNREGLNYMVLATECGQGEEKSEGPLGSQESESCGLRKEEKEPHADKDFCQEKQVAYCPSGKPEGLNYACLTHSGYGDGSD
The following applies: ROS1; 1 μM; read-out: % control.

Test [8] deals with T8, panel of 468 kinases (Homo sapiens, UniProt Q14004).
T8 construct: purchased KINOMEscan (ScanMAX) service
The following applies: CDC2L5; 1 μM; read-out: % control.

The target of test [9] is T9, panel of 468 kinases (Homo sapiens, UniProt O43283).
T9 construct: purchased KINOMEscan (ScanMAX) service
T9 sequence (O43283 1-966): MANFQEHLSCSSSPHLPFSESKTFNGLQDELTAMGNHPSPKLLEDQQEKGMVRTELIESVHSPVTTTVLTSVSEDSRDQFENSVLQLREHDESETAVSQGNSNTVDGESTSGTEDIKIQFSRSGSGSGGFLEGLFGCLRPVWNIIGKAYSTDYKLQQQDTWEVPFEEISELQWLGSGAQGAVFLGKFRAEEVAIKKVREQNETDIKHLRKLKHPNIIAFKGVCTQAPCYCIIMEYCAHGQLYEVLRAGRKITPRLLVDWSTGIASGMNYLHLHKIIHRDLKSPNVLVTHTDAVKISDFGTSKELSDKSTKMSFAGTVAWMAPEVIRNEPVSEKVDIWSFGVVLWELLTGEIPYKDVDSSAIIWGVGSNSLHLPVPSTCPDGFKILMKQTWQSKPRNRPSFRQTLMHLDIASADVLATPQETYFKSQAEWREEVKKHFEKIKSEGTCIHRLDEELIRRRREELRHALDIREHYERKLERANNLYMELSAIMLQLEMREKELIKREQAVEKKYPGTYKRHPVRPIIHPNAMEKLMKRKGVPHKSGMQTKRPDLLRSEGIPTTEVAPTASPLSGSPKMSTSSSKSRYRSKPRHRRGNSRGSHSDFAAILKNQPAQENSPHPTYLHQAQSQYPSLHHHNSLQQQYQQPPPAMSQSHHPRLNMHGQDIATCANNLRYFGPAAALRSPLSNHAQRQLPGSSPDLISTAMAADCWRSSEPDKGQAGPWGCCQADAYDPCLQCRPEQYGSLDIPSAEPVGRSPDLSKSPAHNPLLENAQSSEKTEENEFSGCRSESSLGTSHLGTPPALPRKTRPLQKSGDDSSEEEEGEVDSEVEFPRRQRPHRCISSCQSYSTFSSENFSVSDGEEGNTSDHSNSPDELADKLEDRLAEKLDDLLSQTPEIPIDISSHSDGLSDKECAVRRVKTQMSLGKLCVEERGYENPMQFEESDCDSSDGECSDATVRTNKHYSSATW
The following applies: LZK; 1 μM; read-out: % control.

T5 sequence (Q02779 whole entry): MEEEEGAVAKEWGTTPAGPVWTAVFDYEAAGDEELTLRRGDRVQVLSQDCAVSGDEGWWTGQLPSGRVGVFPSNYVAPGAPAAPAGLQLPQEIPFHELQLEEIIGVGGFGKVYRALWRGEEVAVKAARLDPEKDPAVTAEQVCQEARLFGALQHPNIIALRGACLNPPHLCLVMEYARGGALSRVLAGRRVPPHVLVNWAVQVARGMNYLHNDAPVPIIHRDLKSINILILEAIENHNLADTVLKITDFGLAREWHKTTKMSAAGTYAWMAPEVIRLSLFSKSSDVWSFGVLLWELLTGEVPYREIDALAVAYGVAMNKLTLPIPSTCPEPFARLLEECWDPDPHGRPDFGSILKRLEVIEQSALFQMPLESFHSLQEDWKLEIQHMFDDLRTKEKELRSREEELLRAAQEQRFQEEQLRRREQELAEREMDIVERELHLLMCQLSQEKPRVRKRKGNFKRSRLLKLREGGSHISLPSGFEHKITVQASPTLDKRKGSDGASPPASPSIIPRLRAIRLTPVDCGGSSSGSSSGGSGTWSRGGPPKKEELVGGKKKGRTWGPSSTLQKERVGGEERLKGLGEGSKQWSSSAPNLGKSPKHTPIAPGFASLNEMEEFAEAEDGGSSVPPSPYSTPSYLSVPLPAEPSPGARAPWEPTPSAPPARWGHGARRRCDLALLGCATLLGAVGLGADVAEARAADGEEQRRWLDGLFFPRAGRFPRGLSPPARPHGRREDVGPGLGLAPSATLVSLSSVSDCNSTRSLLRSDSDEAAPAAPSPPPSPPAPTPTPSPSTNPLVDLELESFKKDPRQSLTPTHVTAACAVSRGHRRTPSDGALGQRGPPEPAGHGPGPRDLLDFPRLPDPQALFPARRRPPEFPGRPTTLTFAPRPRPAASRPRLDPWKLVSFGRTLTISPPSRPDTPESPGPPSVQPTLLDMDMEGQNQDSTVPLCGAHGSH
T1 sequence (Q9Y463 whole entry): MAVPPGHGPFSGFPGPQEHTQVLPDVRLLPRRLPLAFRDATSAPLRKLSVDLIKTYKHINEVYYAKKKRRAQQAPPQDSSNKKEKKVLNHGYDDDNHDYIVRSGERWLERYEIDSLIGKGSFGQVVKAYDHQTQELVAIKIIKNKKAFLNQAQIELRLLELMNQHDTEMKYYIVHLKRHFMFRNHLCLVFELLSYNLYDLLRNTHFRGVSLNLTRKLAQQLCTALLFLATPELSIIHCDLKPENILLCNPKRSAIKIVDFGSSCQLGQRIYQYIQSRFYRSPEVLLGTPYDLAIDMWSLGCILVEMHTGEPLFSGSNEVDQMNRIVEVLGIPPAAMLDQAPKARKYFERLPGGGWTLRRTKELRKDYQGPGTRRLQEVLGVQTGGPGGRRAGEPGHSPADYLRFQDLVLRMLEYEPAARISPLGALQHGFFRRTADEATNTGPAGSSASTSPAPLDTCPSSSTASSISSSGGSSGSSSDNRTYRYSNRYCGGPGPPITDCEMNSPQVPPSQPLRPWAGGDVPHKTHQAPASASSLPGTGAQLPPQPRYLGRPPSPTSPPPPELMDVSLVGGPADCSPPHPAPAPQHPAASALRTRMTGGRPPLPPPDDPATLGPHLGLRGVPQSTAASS

`CNc1nc(Nc2ccc(C(=O)N3CCC(N4CCOCC4)CC3)c3c2OCO3)nc2[nH]cc(Cl)c12` [Compound 75, (7-((5-chloro-4-(methylamino)-7H-pyrrolo[2,3-d]pyrimidin-2-yl)amino)benzo[d][1,3]dioxol-4-yl)(4-morpholinopiperidin-1-yl)methanone]: the remaining binding at 1 µM at panel of 468 kinases [1] stood at 0%; at panel of 468 kinases [2] it was 100%; on panel of 468 kinases [3], 98%; on panel of 468 kinases [4], 90%; on panel of 468 kinases [5], 93%; at panel of 468 kinases [6] it was 100%. The remaining binding at 1 µM on panel of 468 kinases [7] was determined as 86%; at panel of 468 kinases [8], 57%; on panel of 468 kinases [9], 57%.
As to `CNc1nc(Nc2ccc(P3(=O)CCN(C4CCOCC4)CC3)cc2OC)nc2[nH]cc(Cl)c12` [Compound 77, 4-(4-((5-chloro-4-(methylamino)-7H-pyrrolo[2,3-d]pyrimidin-2-yl)amino)-3-methoxyphenyl)-1-(tetrahydro-2H-pyran-4-yl)-1,4-azaphosphinane 4-oxide], the remaining binding at 1 µM on panel of 468 kinases [1] amounted to 13%; at panel of 468 kinases [2], 100%; at panel of 468 kinases [3], 88%; on panel of 468 kinases [4], 83%; on panel of 468 kinases [5], 99%; on panel of 468 kinases [6] it was 100%. The remaining binding at 1 µM came to 54% on panel of 468 kinases [7], 55% on panel of 468 kinases [8] and 62% at panel of 468 kinases [9].
For the molecule `CNc1nc(Nc2ccc(S(=O)(=O)N3CCC(N4CCOCC4)CC3)cc2OC)nc2[nH]cc(Cl)c12` [Compound 12, 5-chloro-N2-(2-methoxy-4-((4-morpholinopiperidin-1-yl)sulfonyl)phenyl)-N4-methyl-7H-pyrrolo[2,3-d]pyrimidine-2,4-diamine], the remaining binding at 1 µM was found to be 6.1% on panel of 468 kinases [1]; 100% at panel of 468 kinases [2]; 97% on panel of 468 kinases [3]; 83% on panel of 468 kinases [4]; 99% on panel of 468 kinases [5]; 100% at panel of 468 kinases [6]. Moreover, the remaining binding at 1 µM worked out at 85% on panel of 468 kinases [7], 54% at panel of 468 kinases [8] and 63% at panel of 468 kinases [9].
